{"source": "patent US20220274947A1", "about": "“NOVEL HETEROARYL-TRIAZOLE COMPOUNDS AS PESTICIDES” (Bayer Aktiengesellschaft, priority 2019, published 2022)", "assay_type_in_all_cases": "in vivo", "key": {"Rhipicephalus microplus [1]": {"system": "Rhipicephalus microplus", "test": "Rhipicephalus (Boophilus) microplus injection test (BOOPMI Inj)", "conditions": "168 h, injection into adult engorged female ticks, egg deposition after 7 days, read-out: activity (efficacy: 100% means all eggs are infertile); for pest or weed control at 0.004 mg: application rate 4 μg/tick; for pest or weed control at 0.02 mg: application rate 20 μg/tick", "method": "Rhipicephalus (Boophilus) Microplus—Injection Test (BOOPMI Inj)\nSolvent: dimethyl sulfoxide\nTo produce a suitable preparation of active compound, 10 mg of active compound are dissolved in 0.5 mL solvent, and the concentrate is diluted with solvent to the desired concentration.\nFive adult engorged female ticks (Rhipicephalus microplus) are injected with 1 μL compound solution into the abdomen. The ticks are transferred into replica plates and incubated in a climate chamber.\nAfter 7 days egg deposition of fertile eggs is monitored. Eggs where fertility is not visible are stored in a climate chamber till hatching after about 42 days. An efficacy of 100% means all eggs are infertile; 0% means all eggs are fertile."}, "Rhipicephalus microplus [2]": {"system": "Rhipicephalus microplus", "test": "Rhipicephalus (Boophilus) microplus in-vitro contact test, larval cattle tick, strain Parkhurst (BOOPMI Cont)", "conditions": "application rate 5 μg/cm^2 (=500 g/ha), tick larvae, after 48 hours, read-out: activity (efficacy: 100% means all larvae are dead or moribund)", "method": "Rhipicephalus (Boophilus) Microplus—In-Vitro Contact Tests Larval Cattle Tick (Strain Parkhurst, Resistant Against Synthetic Pyrethroids) (BOOPMI Cont)\n9 mg compound is solved in 1 mL acetone and diluted with acetone to the desired concentration. 250 μL of the test solution is filled in 25 mL glass test tubes and homogeneously distributed on the inner walls by rotation and tilting on a shaking device (2 h at 30 rpm). With a compound concentration of 900 ppm, an inner surface of 44.7 cm^2 and a homogeneous distribution, a dose of 5 μg/cm^2 is achieved.\nAfter the solvent has evaporated, each test tube is filled with 20-50 cattle tick larvae (Rhipicephalus microplus), closed with a perforated lid and incubated in a horizontal position at 85% relative humidity and 27° C. in an incubator. After 48 hours efficacy is determined. The larvae are patted on the ground of the tubes and negative geotactic behavior is recorded.\nAn efficacy of 100% means all larvae are dead or moribund; 0% means no larvae are dead or moribund."}, "Ctenocephalides felis": {"system": "Ctenocephalides felis", "test": "Ctenocephalides felis oral test (CTECFE Oral)", "conditions": "48 h, read-out: activity (mortality)", "method": "Ctenocephalides felis—Oral Test (CTECFE Oral) Solvent: dimethyl sulfoxide\nTo produce a suitable preparation of active compound, 10 mg of active compound are dissolved in 0.5 mL solvent, and the concentrate is diluted with cattle blood to the desired concentration.\nApproximately 20 adult unfed cat fleas (Ctenocephalides felis) are placed in flea chambers. The blood chamber, sealed with parafilm on the bottom, are filled with cattle blood supplied with compound solution and placed on the gauze covered top of the flea chamber, so that the fleas are able to suck the blood. The blood chamber is heated to 37° C. whereas the flea chamber is kept at room temperature.\nAfter 2 days mortality in % is determined. 100% means all the fleas have been killed; 0% means none of the fleas have been killed."}, "Diabrotica balteata": {"system": "Diabrotica balteata", "test": "Diabrotica balteata spray test", "conditions": "168 h, application rate 100 g/ha (=32 μg/well), wheat seeds, larvae, after 7 days, read-out: activity (efficacy: 100% means all seedlings have grown up like in the untreated, uninfected control)", "method": "Diabrotica balteata—Spray Test Solvent: 78.0 parts by weight of acetone • • 1.5 parts by weight of dimethylformamide Emulsifier: alkylarylpolyglycol ether\n(§1) To produce a suitable preparation of active compound, 1 part by weight of active compound is mixed with the stated amount of solvent, and the concentrate is diluted with water, containing an emulsifier concentration of 1000 ppm, to the desired concentration. Further test concentrations are prepared by dilution with emulsifier containing water.\nSoaked wheat seeds (Triticum aestivum) are placed in a multiple well plate filled with agar and some water and are incubated for 1 day to germinate (5 seeds per well). The germinated wheat seeds are sprayed with a test solution containing the desired concentration of the active ingredient. Afterwards each unit is infected with 10-20 larvae of the banded cucumber beetle (Diabrotica balteata).\nAfter 7 days efficacy in % is determined. 100% means all the seedlings have grown up like in the untreated, uninfected control; 0% means none of the seedlings have grown."}, "Spodoptera frugiperda": {"system": "Spodoptera frugiperda", "test": "Spodoptera frugiperda spray test", "conditions": "in Zea mays, 168 h, read-out: activity (mortality)", "method": "Spodoptera Fruaiperda—Spray Test\nSolvent: 78.0 parts by weight acetone • 1.5 parts by weight dimethylformamide Emulsifier: alkylarylpolyglycol ether\nas §1, with “solvents” for “solvent,”, “and” for “and the concentrate”\nMaize (Zea mays) leaf sections are sprayed with a preparation of the active ingredient of the desired concentration. Once dry, the leaf sections are infested with fall armyworm larvae (Spodoptera frugiperda).\nAfter 7 days mortality in % is determined. 100% means all caterpillars have been killed and 0% means none of the caterpillars have been killed."}, "[3]": {"system": "Musca domestica strain WHO—N", "test": "Musca domestica test (MUSCDO surface treatment & contact assay)", "conditions": "surface concentration 20 mg/m^2, glazed tile, exposure 30 minutes, 24 hours after contact, read-out: efficacy (mortality)", "method": "Musca domestica Test (MUSCDO Surface Treatment & Contact Assay) Solvent: Aceton+2000 ppm rapeseed oil methyl ester (RME)\n(§2) In order to produce a sufficient, active ingredient containing solution it is necessary to solve the test compound in the solvent-mix (acetone at 2 mg/ml/RME 2000 ppm). This solution is pipetted onto a glazed tile and after evaporation of the acetone, adult flies of the species Musca domestica strain WHO—N are placed onto the dried surface. The exposure time is 30 minutes. Mortality in percent (%) is determined 24 hours after contact of the insects to the treated surface. 100% mortality means that all tested insects are dead, whereas 0% means that no insect died."}, "[4]": {"system": "Aedes aegypti strain MONHEIM", "test": "Aedes aegypti test (AEDSAE surface treatment & contact assay)", "conditions": "exposure 30 minutes, 24 hours after contact, read-out: efficacy (mortality); for mortality at 20 mg/m2: surface concentration 20 mg/m^2, glazed tile; for mortality at 4 mg/m2: surface concentration 4 mg/m^2, glazed tile", "method": "Aedes aegypti Test (AEDSAE Surface Treatment & Contact Assay) Solvent: Aceton+2000 ppm rapeseed oil methyl ester (RME)\nas §2, with “mosquitoes” for “flies”, “Aedes aegypti” for “Musca domestica”, “MONHEIM” for “WHO—N”"}, "Rhipicephalus sanguineus": {"system": "Rhipicephalus sanguineus", "test": "Rhipicephalus sanguineus in-vitro contact test, adult brown dog ticks (RHIPSA Cont)", "conditions": "48 h, after 48 hours, read-out: activity (efficacy: 100% means all ticks are dead or moribund); for pest or weed control at 5 µg/cm2, 500 g/ha: application rate 5 μg/cm^2 (=500 g/ha)", "method": "Rhipicephalus sanguineus-In-Vitro Contact Tests with Adult Brown Dog Ticks ([…] Cont) 9 mg compound is solved in 1 mL acetone and diluted with acetone to the desired concentration. 250 μL of the test solution is filled in 25 mL glass test tubes and homogeneously distributed on the inner walls by rotation and tilting on a shaking device (2 h at 30 rpm). […] After 48 hours efficacy is determined. The ticks are patted on the ground of the tubes and are incubated on a heating plate at 45-50° C. for at most 5 minutes. Immotile or uncoordinated moving ticks, which are not able to escape the heat by climbing upwards, are marked as dead or moribund."}}, "data": [{"smiles": "C[C@H](NC(=O)c1cc(Cl)cc(OC(F)F)c1)c1nc(C2CC2)nn1-c1ccc(C#N)cn1", "note": "[I-34]", "values": [{"measurement": "pest or weed control at 0.004 mg", "setting": "Rhipicephalus microplus [1]", "value": 100, "unit": "%"}, {"measurement": "pest or weed control at 0.02 mg", "setting": "Rhipicephalus microplus [1]", "value": 100, "unit": "%"}, {"measurement": "pest or weed control at 5 µg/cm2", "setting": "Rhipicephalus microplus [2]", "value": 90, "unit": "%"}, {"measurement": "mortality at 100 ppm", "setting": "Ctenocephalides felis", "value": 100, "unit": "%"}, {"measurement": "pest or weed control at 32 µg/disc, 100 g/ha", "setting": "Diabrotica balteata", "value": 100, "unit": "%"}, {"measurement": "mortality at 100 g/ha", "setting": "Spodoptera frugiperda", "value": 100, "unit": "%"}, {"measurement": "mortality at 20 mg/m2", "setting": "[3]", "value": "80 to 100", "unit": "%"}]}, {"smiles": "C[C@H](NC(=O)c1cc(Br)cc(C#N)c1)c1nc(C2CC2)nn1-c1ccc(C#N)cn1", "note": "[I-35]", "values": [{"measurement": "pest or weed control at 0.004 mg", "setting": "Rhipicephalus microplus [1]", "value": 100, "unit": "%"}, {"measurement": "pest or weed control at 0.02 mg", "setting": "Rhipicephalus microplus [1]", "value": 100, "unit": "%"}, {"measurement": "pest or weed control at 5 µg/cm2", "setting": "Rhipicephalus microplus [2]", "value": 100, "unit": "%"}, {"measurement": "mortality at 100 ppm", "setting": "Ctenocephalides felis", "value": 100, "unit": "%"}, {"measurement": "pest or weed control at 32 µg/disc, 100 g/ha", "setting": "Diabrotica balteata", "value": 100, "unit": "%"}, {"measurement": "mortality at 20 mg/m2", "setting": "[4]", "value": "80 to 100", "unit": "%"}, {"measurement": "mortality at 20 mg/m2", "setting": "[3]", "value": "80 to 100", "unit": "%"}]}, {"smiles": "Cc1nc([C@H](C)NC(=O)c2cncc(Br)c2)n(-c2ccc(C#N)cn2)n1", "note": "[II-49]", "values": [{"measurement": "pest or weed control at 0.004 mg", "setting": "Rhipicephalus microplus [1]", "value": 100, "unit": "%"}, {"measurement": "pest or weed control at 0.02 mg", "setting": "Rhipicephalus microplus [1]", "value": 100, "unit": "%"}, {"measurement": "pest or weed control at 5 µg/cm2", "setting": "Rhipicephalus microplus [2]", "value": 100, "unit": "%"}, {"measurement": "mortality at 100 ppm", "setting": "Ctenocephalides felis", "value": 100, "unit": "%"}, {"measurement": "pest or weed control at 5 µg/cm2, 500 g/ha", "setting": "Rhipicephalus sanguineus", "value": 100, "unit": "%"}, {"measurement": "pest or weed control at 32 µg/disc, 100 g/ha", "setting": "Diabrotica balteata", "value": 100, "unit": "%"}, {"measurement": "mortality at 4 mg/m2", "setting": "[4]", "value": "80 to 100", "unit": "%"}]}, {"smiles": "CC[C@H](NC(=O)c1cc(Cl)cc(C(F)(F)F)c1)c1ncnn1-c1ncc(OC(F)F)cn1", "note": "[II-64]", "values": [{"measurement": "pest or weed control at 0.004 mg", "setting": "Rhipicephalus microplus [1]", "value": 100, "unit": "%"}, {"measurement": "pest or weed control at 0.02 mg", "setting": "Rhipicephalus microplus [1]", "value": 100, "unit": "%"}, {"measurement": "pest or weed control at 5 µg/cm2", "setting": "Rhipicephalus microplus [2]", "value": 100, "unit": "%"}, {"measurement": "mortality at 100 ppm", "setting": "Ctenocephalides felis", "value": 100, "unit": "%"}, {"measurement": "pest or weed control at 5 µg/cm2, 500 g/ha", "setting": "Rhipicephalus sanguineus", "value": 80, "unit": "%"}, {"measurement": "pest or weed control at 32 µg/disc, 100 g/ha", "setting": "Diabrotica balteata", "value": 100, "unit": "%"}, {"measurement": "mortality at 100 g/ha", "setting": "Spodoptera frugiperda", "value": 100, "unit": "%"}, {"measurement": "mortality at 20 mg/m2", "setting": "[4]", "value": "80 to 100", "unit": "%"}]}, {"smiles": "C[C@H](NC(=O)c1cc(Br)c(F)c(Br)c1)c1ncnn1-c1ccc(C#N)cn1", "note": "[II-82]", "values": [{"measurement": "pest or weed control at 0.004 mg", "setting": "Rhipicephalus microplus [1]", "value": 100, "unit": "%"}, {"measurement": "pest or weed control at 5 µg/cm2", "setting": "Rhipicephalus microplus [2]", "value": 100, "unit": "%"}, {"measurement": "mortality at 100 ppm", "setting": "Ctenocephalides felis", "value": 100, "unit": "%"}, {"measurement": "pest or weed control at 1 µg/cm2, 100 g/ha", "setting": "Rhipicephalus sanguineus; application rate 1 μg/cm^2 (=100 g/ha)", "value": 80, "unit": "%"}, {"measurement": "pest or weed control at 5 µg/cm2, 500 g/ha", "setting": "Rhipicephalus sanguineus", "value": 80, "unit": "%"}, {"measurement": "pest or weed control at 32 µg/disc, 100 g/ha", "setting": "Diabrotica balteata", "value": 80, "unit": "%"}, {"measurement": "mortality at 100 g/ha", "setting": "Spodoptera frugiperda", "value": 100, "unit": "%"}, {"measurement": "mortality at 4 mg/m2", "setting": "[4]", "value": "80 to 100", "unit": "%"}, {"measurement": "mortality at 20 mg/m2", "setting": "[4]", "value": "80 to 100", "unit": "%"}]}]}
